Values of other authors, collected in publication PMC8847371 (Nature Communications, 2022).

How the values were obtained:
COVID-19 [1] = system: COVID-19; set-up: method as in recent press release; conditions: early administration, high risk patients with mild to moderate symptoms; ref recent press release; cited from earlier work
SARS-CoV-2 VoC = conditions: cited from earlier work
SARS-CoV-2 = conditions: cited from earlier work
COVID-19 [2] = system: COVID-19; set-up: method as in MOVe-OUT trial (NCT04575597); conditions: phase 3, high-risk patients with mild to moderate COVID-19; ref MOVe-OUT trial (NCT04575597); cited from earlier work

Row | Compound | reduction of likelihood of hospitalization (COVID-19 [1]) [%] | in vitro potency against the four VOC (SARS-CoV-2 VoC) | efficacy in the SARS-CoV-2 hamster infection model (SARS-CoV-2) | risk of hospitalization or death (COVID-19 [2])
1 | CCC(CC)COC(=O)[C@H](C)N[P@](=O)(OC[C@H]1O[C@@](C#N)(c2ccc3c(N)ncnn23)[C@H](O)[C@@H]1O)Oc1ccccc1 [Veklury] | 87 |  |  | 
2 | CC(C)C(=O)OC[C@H]1O[C@@H](n2ccc(NO)nc2=O)[C@H](O)[C@@H]1O [Molnupiravir] |  | equipotent | effective | significant reduction
